From patent US20260144882A1, “ANTI-NECTIN-4 ANTIBODY DRUG CONJUGATE AND USE THEREOF” (Bio-Thera Solutions, Ltd., priority 2022, published 2026)
Where “and” joins values, the source holds several entries; their conditions need not be identical. Equal values may be shown once.

What was measured:
mouse mNectin-4 protein = biological target: T1, mouse mNectin-4 protein (Mus musculus, UniProt Q8R007); experiment: Species specificity ELISA, mouse Nectin-4; format: binding; conditions: in words
T1 construct: purchased ACRO NE4-M52H3
T1 sequence (Q8R007 31-508): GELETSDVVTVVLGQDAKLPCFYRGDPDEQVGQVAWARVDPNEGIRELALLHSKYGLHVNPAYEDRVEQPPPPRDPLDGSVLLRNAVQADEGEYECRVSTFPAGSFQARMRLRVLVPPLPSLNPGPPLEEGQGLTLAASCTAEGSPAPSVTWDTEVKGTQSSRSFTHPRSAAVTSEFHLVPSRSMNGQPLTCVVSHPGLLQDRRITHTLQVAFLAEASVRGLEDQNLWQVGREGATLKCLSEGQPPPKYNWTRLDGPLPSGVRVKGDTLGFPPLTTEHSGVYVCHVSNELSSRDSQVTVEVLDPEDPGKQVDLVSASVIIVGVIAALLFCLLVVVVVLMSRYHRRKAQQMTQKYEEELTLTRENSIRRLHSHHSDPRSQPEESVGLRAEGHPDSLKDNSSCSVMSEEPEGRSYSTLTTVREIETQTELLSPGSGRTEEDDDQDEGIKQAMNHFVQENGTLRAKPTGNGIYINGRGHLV
Protocol: The binding of different antibodies to different species of Nectin-4 proteins was detected by ELISA. hNectin-4-His, monkey cNectin-4 protein (ACRO, NE4-C52H4) and mouse mNectin-4 protein (ACRO, NE4-M52H3) were immobilized; antibodies ASG-22, 1F3, 1G8, 3A10, and 10F4 were serially diluted, and HRP-labeled anti-human-Kappa secondary antibody was added for chromogenic reaction.

[1] = biological target: T2, hNectin-4-His (human Nectin-4 extracellular antigen) (Homo sapiens, UniProt Q96NY8); experiment: SPR (BIAcore) affinity assay; format: binding
T2 construct: made in house
T2 sequence (Q96NY8 with tags, fused parts or gaps): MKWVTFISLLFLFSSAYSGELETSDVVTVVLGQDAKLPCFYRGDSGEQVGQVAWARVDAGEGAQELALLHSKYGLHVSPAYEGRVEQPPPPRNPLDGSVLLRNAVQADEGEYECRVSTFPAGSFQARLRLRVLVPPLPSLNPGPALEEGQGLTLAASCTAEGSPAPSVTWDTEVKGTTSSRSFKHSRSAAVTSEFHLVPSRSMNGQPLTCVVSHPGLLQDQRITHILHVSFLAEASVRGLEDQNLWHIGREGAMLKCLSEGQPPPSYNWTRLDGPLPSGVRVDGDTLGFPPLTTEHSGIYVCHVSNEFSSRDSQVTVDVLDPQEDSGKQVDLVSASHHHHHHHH
Protocol: In this study, the affinity of the antibodies for the human Nectin-4 extracellular antigen was detected by surface plasmon resonance (SPR) technique (BIAcore: GE Healthcare, T200).
Capture was performed using a Protein A chip (Cat #29127556, GE Healthcare), and 5 µg/mL antibody dilutions (in HBS-EP+(10×): GE Healthcare, Cat #BR-1006-69, with a working concentration of 1×) were directed through the experimental flow channels (Fc2 and Fc4) at a flow rate of 10 μL/min for 10 s; then, the flow rate was adjusted to 30 μL/min, the hNectin-4-His dilutions at different concentrations (0 nM, 1.23 nM, 3.7 nM, 11.1 nM, 33.3 nM, and 100 nM) were sequentially added, and simultaneously directed through the surfaces of the experimental flow channels (Fc2 and Fc4) and reference flow channels (Fc1 and Fc3) with an association time of 120 s and a dissociation time of 180 s, and finally, the chip was regenerated in Glycine 1.5.

T-47D cells = experiment: Endocytosis efficiency assay by FACS; format: cell-based, human
Protocol: In this assay, the relative amount of antibodies remaining on the cell surface after co-incubation at 37° C. for a certain period of time was detected by FACS to reflect the endocytosis efficiency. The procedures are briefly described as follows: T-47D cells (human ductal breast cancer cells, derived from the Cell Bank of Chinese Academy of Sciences, Cat.No. TCHu 87); the antibodies of interest were adjusted to 10 µg/mL and co-incubated with the cells on ice for 1 h; the cells were washed 3 times with pre-cooled PBS, and then placed at 37° C. and incubated for 0 h, 2 h and 4 h; 0.2% N3Na was added to stop the endocytosis reaction; the cells were washed with PBS thrice, followed by the addition of the PE-labeled anti-human Fc secondary antibody (Invitrogen 12-4998-82); the cells were incubated at 4° C. for 30 min; the red fluorescence signal was detected on a flow cytometer.

- binding to mouse Nectin-4 (mouse mNectin-4 protein): weak binding
- Ka ([1]; Table 12, association rate): 723000 M⁻¹ s⁻¹
- Kd ([1]; Table 12, dissociation rate): 0.00436 s⁻¹
- ka ([1]; Table 13): 577000 M⁻¹ s⁻¹ and 540000 M⁻¹ s⁻¹
- kd ([1]; Table 13): 0.00581 s⁻¹ and 0.0059 s⁻¹
Substance: ASG-22: reference antibody; heavy chain SEQ ID NO: 5, light chain SEQ ID NO: 6 [reference compound]
- Endocytosis rate at 2 h (T-47D cells; Table 14): 49.8%
- Endocytosis rate at 4 h (T-47D cells; Table 14): 74.1%
- MFI (mean fluorescence intensity) 2 h (T-47D cells; Table 14, 37° C.): 53739.06
- MFI (mean fluorescence intensity) 4 h (T-47D cells; Table 14, 37° C.): 27694.23
- Endocytosis rate at 2 h (T-47D cells; Table 15): 35.2%
- Endocytosis rate at 4 h (T-47D cells; Table 15): 35.4%
- MFI (mean fluorescence intensity) 0 h (T-47D cells; Table 15, 37° C., 0 h): 58,591.2
- MFI (mean fluorescence intensity) 2 h (T-47D cells; Table 15, 37° C.): 37,973.0
- MFI (mean fluorescence intensity) 4 h (T-47D cells; Table 15, 37° C.): 37,844.0
